Reference: ChEMBL document CHEMBL1201862, “PubChem BioAssay data set” (2004)
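Dose response: 5 concentrations. Exposure: 48 h. Format: 96-well plates. Endpoint: linear interpolation; highest concentration if not reached. The concentration for 50% growth inhibition is given as GI50.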 Activity calls are given as the source filed them. No stated cut-off is given here; in the data, active = GI50 up to about 1.1 µM and inactive = higher.

How the values were obtained:
Test in all cases: NCI anticancer screen, dose series, 48 h
RPMI-8226 = system: RPMI-8226
SF-539 = system: SF-539
SK-MEL-2 = system: SK-MEL-2
OVCAR-4 = system: OVCAR-4
NCI-H226 = system: NCI-H226
M14 = system: M14
COLO 205 = system: COLO 205
SF-295 = system: SF-295
HCT-15 = system: HCT-15
IGROV-1 = system: IGROV-1
HCC 2998 = system: HCC 2998
ACHN = system: ACHN
NCI-H460 = system: NCI-H460
UACC-62 = system: UACC-62
UACC-257 = system: UACC-257
CCRF-CEM = system: CCRF-CEM
786-0 = system: 786-0
KM12 = system: KM12
U-251 = system: U-251
OVCAR-5 = system: OVCAR-5
A498 = system: A498
UO-31 = system: UO-31
T47D = system: T47D
BT-549 = system: BT-549
MOLT-4 = system: MOLT-4
TK-10 = system: TK-10
PC-3 = system: PC-3
MDA-N = system: MDA-N
MDA-MB-231 = system: MDA-MB-231
SNB-19 = system: SNB-19
NCI/ADR-RES = system: NCI/ADR-RES
NCI-H23 = system: NCI-H23
LOX IMVI = system: LOX IMVI
K562 = system: K562
DU-145 = system: DU-145
MDA-MB-435 = system: MDA-MB-435
SF-268 = system: SF-268
MCF7 = system: MCF7
OVCAR-3 = system: OVCAR-3
Hs-578T = system: Hs-578T
Malme-3M = system: Malme-3M
SK-MEL-5 = system: SK-MEL-5
NCI-H522 = system: NCI-H522
HCT-116 = system: HCT-116
HOP-62 = system: HOP-62
EKVX = system: EKVX
CAKI-1 = system: CAKI-1
SK-OV-3 = system: SK-OV-3
SR = system: SR
SK-MEL-28 = system: SK-MEL-28
OVCAR-8 = system: OVCAR-8
HL-60 = system: HL-60
HT-29 = system: HT-29
A549 = system: A549
SN12C = system: SN12C
SW-620 = system: SW-620
HOP-92 = system: HOP-92
SNB-75 = system: SNB-75
RXF 393 = system: RXF 393

SMILES: c1ccc(C2C3=C(c4ccccc4CC3)N3c4cc5c(cc4=NC34CCCCC24)Nc2ccccc2N=5)cc1 (stereo unspecified)
- GI50 (RPMI-8226): 5.11 µM (inactive)
- GI50 (SF-539): > 10 µM (inactive)
- GI50 (SK-MEL-2): > 10 µM (inactive)
- GI50 (OVCAR-4): 5.79 µM (inactive)
- GI50 (NCI-H226): 6.58 µM (inactive)
- GI50 (M14): 6.61 µM (inactive)
- GI50 (COLO 205): > 10 µM (inactive)
- GI50 (SF-295): > 10 µM (inactive)
- GI50 (HCT-15): 8.39 µM
- GI50 (IGROV-1): > 10 µM (inactive)
- GI50 (HCC 2998): > 10 µM (inactive)
- GI50 (ACHN): 7.26 µM (inactive)
- GI50 (NCI-H460): 5.14 µM (inactive)
- GI50 (UACC-62): > 10 µM (inactive)
- GI50 (UACC-257): > 10 µM (inactive)
- GI50 (CCRF-CEM): 1.67 µM (inactive)
- GI50 (786-0): 7.14 µM (inactive)
- GI50 (KM12): > 10 µM (inactive)
- GI50 (U-251): > 10 µM (inactive)
- GI50 (OVCAR-5): > 10 µM (inactive)
- GI50 (A498): 7.38 µM (inactive)
- GI50 (UO-31): 6.55 µM (inactive)
- GI50 (T47D): 7.53 µM (inactive)
- GI50 (BT-549): > 10 µM (inactive)
- GI50 (MOLT-4): 2.4 µM (inactive)
- GI50 (TK-10): > 10 µM (inactive)
- GI50 (PC-3): 6.92 µM (inactive)
- GI50 (MDA-N): 5.83 µM (inactive)
- GI50 (MDA-MB-231): 9.79 µM (inactive)
- GI50 (SNB-19): > 10 µM (inactive)
- GI50 (NCI/ADR-RES): 6.79 µM (inactive)
- GI50 (NCI-H23): 9.2 µM (inactive)
- GI50 (LOX IMVI): 8.04 µM (inactive)
- GI50 (K562): 5.27 µM (inactive)
- GI50 (DU-145): > 10 µM (inactive)
- GI50 (MDA-MB-435): 7.28 µM (inactive)
- GI50 (SF-268): > 10 µM (inactive)
- GI50 (MCF7): 7.69 µM (inactive)
- GI50 (OVCAR-3): > 10 µM (inactive)
- GI50 (Hs-578T): > 10 µM (inactive)
- GI50 (Malme-3M): > 10 µM (inactive)
- GI50 (SK-MEL-5): > 10 µM (inactive)
- GI50 (NCI-H522): 1 µM (active)
- GI50 (HCT-116): 5.55 µM (inactive)
- GI50 (HOP-62): > 10 µM (inactive)
- GI50 (EKVX): > 10 µM (inactive)
- GI50 (CAKI-1): > 10 µM (inactive)
- GI50 (SK-OV-3): > 10 µM (inactive)
- GI50 (SR): 1.11 µM (active)
- GI50 (SK-MEL-28): > 10 µM (inactive)
- GI50 (OVCAR-8): > 10 µM (inactive)
- GI50 (HL-60): 3.77 µM (inactive)
- GI50 (HT-29): 7.87 µM (inactive)
- GI50 (A549): > 10 µM (inactive)
- GI50 (SN12C): > 10 µM (inactive)
- GI50 (SW-620): 9.64 µM (inactive)
- GI50 (HOP-92): 7.64 µM (inactive)
- GI50 (SNB-75): 9.27 µM (inactive)
- GI50 (RXF 393): 6.59 µM (inactive)

SMILES: O=C1Oc2ccccc2C(=O)/C1=C1/C=C(c2ccccc2)SS1
- GI50 (RPMI-8226): > 100 µM (inactive)
- GI50 (SF-539): > 100 µM (inactive)
- GI50 (SK-MEL-2): > 100 µM (inactive)
- GI50 (OVCAR-4): 91 µM (inactive)
- GI50 (NCI-H226): 24.3 µM (inactive)
- GI50 (M14): 43.8 µM (inactive)
- GI50 (COLO 205): 57.5 µM (inactive)
- GI50 (SF-295): > 100 µM (inactive)
- GI50 (HCT-15): 40 µM
- GI50 (IGROV-1): 86.5 µM (inactive)
- GI50 (HCC 2998): 96.8 µM (inactive)
- GI50 (ACHN): > 100 µM (inactive)
- GI50 (NCI-H460): > 100 µM (inactive)
- GI50 (UACC-62): 82.8 µM (inactive)
- GI50 (UACC-257): > 100 µM (inactive)
- GI50 (CCRF-CEM): 22.6 µM (inactive)
- GI50 (786-0): > 100 µM (inactive)
- GI50 (KM12): > 100 µM (inactive)
- GI50 (U-251): 76 µM (inactive)
- GI50 (OVCAR-5): > 100 µM (inactive)
- GI50 (A498): > 100 µM (inactive)
- GI50 (UO-31): > 100 µM (inactive)
- GI50 (T47D): > 100 µM (inactive)
- GI50 (BT-549): > 100 µM (inactive)
- GI50 (MOLT-4): 30.4 µM (inactive)
- GI50 (TK-10): > 100 µM (inactive)
- GI50 (PC-3): > 100 µM (inactive)
- GI50 (MDA-N): 34.8 µM (inactive)
- GI50 (MDA-MB-231): 80.4 µM (inactive)
- GI50 (SNB-19): 81.8 µM (inactive)
- GI50 (NCI/ADR-RES): 60.1 µM (inactive)
- GI50 (NCI-H23): > 100 µM (inactive)
- GI50 (LOX IMVI): 64.7 µM (inactive)
- GI50 (K562): 42.5 µM (inactive)
- GI50 (DU-145): 85.5 µM (inactive)
- GI50 (MDA-MB-435): 48.9 µM (inactive)
- GI50 (SF-268): 86.7 µM (inactive)
- GI50 (MCF7): > 100 µM (inactive)
- GI50 (OVCAR-3): 71.1 µM (inactive)
- GI50 (Hs-578T): > 100 µM (inactive)
- GI50 (Malme-3M): 96.4 µM (inactive)
- GI50 (SK-MEL-5): > 100 µM (inactive)
- GI50 (NCI-H522): 49.3 µM (inactive)
- GI50 (HCT-116): 56.6 µM (inactive)
- GI50 (HOP-62): > 100 µM (inactive)
- GI50 (EKVX): > 100 µM (inactive)
- GI50 (CAKI-1): 49.2 µM (inactive)
- GI50 (SK-OV-3): > 100 µM (inactive)
- GI50 (SR): 28.3 µM (inactive)
- GI50 (SK-MEL-28): > 100 µM (inactive)
- GI50 (OVCAR-8): > 100 µM (inactive)
- GI50 (HL-60): 21.9 µM (inactive)
- GI50 (HT-29): 40.6 µM (inactive)
- GI50 (A549): > 100 µM (inactive)
- GI50 (SN12C): 69 µM (inactive)
- GI50 (SW-620): > 100 µM (inactive)
- GI50 (HOP-92): 15.6 µM (inactive)
- GI50 (SNB-75): > 100 µM (inactive)
- GI50 (RXF 393): 63.2 µM (inactive)

SMILES: Cc1cc(S(=O)(=O)NC2=Nc3ccc(Cl)cc3C(c3ccccc3)N2)c(S)cc1Cl (stereo unspecified)
- GI50 (RPMI-8226): 97.1 µM (inactive)
- GI50 (SF-539): > 100 µM (inactive)
- GI50 (OVCAR-4): 43.6 µM (inactive)
- GI50 (NCI-H226): 15.4 µM (inactive)
- GI50 (M14): > 100 µM (inactive)
- GI50 (COLO 205): > 100 µM (inactive)
- GI50 (SF-295): 20.9 µM (inactive)
- GI50 (HCT-15): 67.1 µM
- GI50 (IGROV-1): > 100 µM (inactive)
- GI50 (HCC 2998): > 100 µM (inactive)
- GI50 (ACHN): > 100 µM (inactive)
- GI50 (NCI-H460): 8.79 µM (inactive)
- GI50 (UACC-62): > 100 µM (inactive)
- GI50 (UACC-257): > 100 µM (inactive)
- GI50 (CCRF-CEM): 57.8 µM (inactive)
- GI50 (786-0): > 100 µM (inactive)
- GI50 (KM12): 92.9 µM (inactive)
- GI50 (U-251): 33.8 µM (inactive)
- GI50 (OVCAR-5): > 100 µM (inactive)
- GI50 (A498): > 100 µM (inactive)
- GI50 (UO-31): 46 µM (inactive)
- GI50 (T47D): 9.02 µM (inactive)
- GI50 (BT-549): > 100 µM (inactive)
- GI50 (MOLT-4): 62.5 µM (inactive)
- GI50 (TK-10): > 100 µM (inactive)
- GI50 (PC-3): 1.84 µM (inactive)
- GI50 (MDA-N): > 100 µM (inactive)
- GI50 (MDA-MB-231): > 100 µM (inactive)
- GI50 (SNB-19): 28.5 µM (inactive)
- GI50 (NCI/ADR-RES): > 100 µM (inactive)
- GI50 (NCI-H23): > 100 µM (inactive)
- GI50 (LOX IMVI): 47.5 µM (inactive)
- GI50 (K562): 85.5 µM (inactive)
- GI50 (DU-145): > 100 µM (inactive)
- GI50 (MDA-MB-435): > 100 µM (inactive)
- GI50 (SF-268): 9.12 µM (inactive)
- GI50 (MCF7): > 100 µM (inactive)
- GI50 (OVCAR-3): > 100 µM (inactive)
- GI50 (Hs-578T): > 100 µM (inactive)
- GI50 (Malme-3M): > 100 µM (inactive)
- GI50 (SK-MEL-5): > 100 µM (inactive)
- GI50 (NCI-H522): > 100 µM (inactive)
- GI50 (HCT-116): 36.8 µM (inactive)
- GI50 (HOP-62): 81.3 µM (inactive)
- GI50 (EKVX): > 100 µM (inactive)
- GI50 (CAKI-1): > 100 µM (inactive)
- GI50 (SK-OV-3): > 100 µM (inactive)
- GI50 (SR): 14.3 µM (inactive)
- GI50 (SK-MEL-28): > 100 µM (inactive)
- GI50 (OVCAR-8): > 100 µM (inactive)
- GI50 (HL-60): > 100 µM (inactive)
- GI50 (HT-29): > 100 µM (inactive)
- GI50 (A549): 17.8 µM (inactive)
- GI50 (SN12C): > 100 µM (inactive)
- GI50 (SW-620): > 100 µM (inactive)
- GI50 (HOP-92): > 100 µM (inactive)
- GI50 (SNB-75): > 100 µM (inactive)
- GI50 (RXF 393): > 100 µM (inactive)
